Laboratory results taken from US12673039B2, “Methods of inducing autophagy using coumarin derivatives and related compounds” (Buck Institute for Research on Aging, priority 2019, dated 2026).

Columns and labels:
TFEB = TFEB activation screen, % activation/control at 24 and 48 hrs (Table 1); format: cell-based, human
Experimental: FIG. 25, panels A-B::AIC106 identified as a lead compound in a TFEB-transcription based screen. Panel A) Rat Neuronal N27 cells were transfected with a vector construct driving expression of secreted-Gaussia luciferase (Sec-Gaussia) in control of 2 kb human TFEB promoter. Next day, cells were seeded into 96-well cell culture plate and exposed to compounds (30 μM) from natural product library (NPL-640) or DMSO-control. After 24 and 48 hours of compound treatment supernatant from the cells was collected and TFEB promoter activity determined by quantifying luciferase activity. Panel B) Effects of AIC106 treatment on HLH-30 expression after 24 hours treatment were determined by immunoblot against GFP in young adult stage of GFP-tagged HLH-30 strain (MAH235) following total protein extraction.
It was discovered that small structural alterations in the C1 compound can have significant effects on the degree of TFEB activation (see, e.g., FIG. 17) the screening systems described herein identified a number of structures related to C1 that similarly induce TFEB.
In vitro drug screening studies. […] We utilized for these studies a 3000 compound natural product derivative library (Timtec, Newark, DE) in […] transfected with a sensitive TFEB promotor-Gaussian luciferase construct. […] C1 is a coumarin-related compound, part of a family of natural benzopyrones found in many edible plants.
To identify novel transcriptional inducers of TFEB, we transfected rat neuronal N27 cells with a vector driving expression of secreted-luciferase under control of the human TFEB promoter. […] AIC106 belongs to a family of coumarin compounds containing an active benzopyrone ring.

DAF-12 = biological target: T1, DAF-12 (Caenorhabditis elegans, UniProt G5EFF5); assay: Mammalian one-hybrid DAF-12 activity assay (HEK293T); format: cell-based, human
T1 construct: expressed in transfected cells; host or cells: HEK293T
T1 sequence (G5EFF5 516-753 limits assumed): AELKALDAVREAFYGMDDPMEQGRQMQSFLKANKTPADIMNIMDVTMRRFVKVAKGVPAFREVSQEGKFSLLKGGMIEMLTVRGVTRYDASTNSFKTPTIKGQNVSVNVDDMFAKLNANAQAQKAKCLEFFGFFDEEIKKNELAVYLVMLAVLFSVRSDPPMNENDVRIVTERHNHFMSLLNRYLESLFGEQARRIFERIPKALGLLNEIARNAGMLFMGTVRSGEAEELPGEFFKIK
Experimental: FIG. 10 illustrates that coumarin 106 (“C1”, “AIC106”) inhibits induction of the worm FXR homologue DAF-12. The ability of C1 (10 μM) to inhibit activation of the FXR worm homologue DAF-12 by its ligand dafachronic acid (Df acid); values are fold activity induction versus untreated controls; ****p<0.01 versus GW; **p<0.05 versus GW.
FIG. 22, panels A-H: AIC106-induced HLH-30 expression is mediated by the nuclear hormone receptor DAF-12. Panel A) The upstream promoter region (2 kB) of hlh-30 was analyzed by JASPAR CORE database to determine DAF-12 binding sites (1: SEQ ID NO:1, 2: 1: SEQ ID NO:2, 3: SEQ ID NO:3, 4: SEQ ID NO:4, 5: SEQ ID NO:5, 6: SEQ ID NO:6, 7: SEQ ID NO:7, 8: SEQ ID NO:8, 9: SEQ ID NO:9, 10: SEQ ID NO:10, 11: SEQ ID NO:11, 12: SEQ ID NO:12). Panel B) Relative fold change in mRNA of hlh-30 compared to DMSO-control was quantified using qRT-PCR in young adult wild-type N2 and daf-12(rh61rh411) worms post-24 hours treatment with AIC106. [N=3 independent experiments (mean±SD). **p<0.01, by one-way ANOVA with Sidak's multiple comparisons test]. Panel C) Effects of AIC106 on DAF-12 activity was determined in a mammalian one-hybrid assay by quantifying changes in the luciferase activity of DAF-12 ligand (dafachronic acid, DA) induced treatment. [N=3 independent experiments (mean±SD). *p<0.05 **p<0.01 and ***p<0.001, by one-way ANOVA with Tukey's multiple comparisons test]. Panel D) Schematic diagram showing that addition of AIC106 or inhibition of DAF-12 ligand synthesis, which leads to un-liganded DAF-12 may result in enhanced HLH-30 expression. Panel E) Dafadine-A (DFA), a specific inhibitor of key enzyme required for synthesis of DAF-12 ligand induces HLH-30 expression. Immunoblot for GFP was performed on protein lysate of HLH-30; GFP (MAH235) young adult worms treated with DFA or DMSO-control for 24 hours. Panel F) Protection against mitochondrial toxin (FCCP) was determined by quantifying survival of young adult worms treated 24 hours with DFA or DMSO-control. [N=3 independent experiments (mean±SD). **p<0.01, by two-way ANOVA with Tukey's multiple comparisons test]. Panel G) Motor function in day-7 NL5901 worms were quantified by scoring number of thrashes for an individual worm over the period of 30 seconds (dots) in DFA and DMSO-control treatment. [N=3 independent experiments (mean±SD). **p<0.01, by unpaired t-test] […] [N=3 independent experiments (mean±SD). *p<0.05, by one-way ANOVA with Tukey's multiple comparisons test].
FIG. 29, panels A-C: AIC106 modulates DAF-12 activity. […] Luciferase activity was measured to quantify DAF-12 activity. Panel C) Dose dependent increase in DAF-12 activity after treatment with known DAF-12 ligand, dafachronic acid (DA) was determined by quantifying luciferase activity. […]

`O=c1oc2c3c4c(cc2c2c1CCC2)CCCN4CCC3` [C1, 2,3,6,7,10,11-Hexahydro-1H,5H-cyclopenta(3,4)(1)benzopyrano(6,7,8-ij)quinolizin-12(9H)-one] was tested, and the “% activation/Control 24 hrs” value (TFEB; 24 hrs) was 350.83%, the “% activation/Control 48 hrs” value (TFEB; 48 hrs) was 413.96% and the “activation of DAF-12 elicited by dafachronic acid” value (DAF-12; C1 10 μM (FIG. 10)) was “inhibit activation of the FXR homologue DAF-12”. For the same compound, the “DAF-12 activity (luciferase)” value (DAF-12; compound alone) was “did not increase DAF-12 activity” and the “DA-induced DAF-12 activity” value (DAF-12; in combination with dafachronic acid) was “dose-dependent suppression of DA-induced DAF-12 activity”.
